Reference: patent US9982005B2, “Macrolides and methods of their preparation and use” (President and Fellows of Harvard College, priority 2013, dated 2018)
Converted amounts (≈) assume the structure as drawn. Read-outs that look alike come from different tables or passages of the source.

Tests used:
Assay type in all cases: cell-based
[1] = tested on: E. coli strains; assay: MIC against E. coli strains (Table M7); conditions: Escherichia coli, ATCC25922, E. coli ATCC 25922
Excerpt: (§1) We have collected MIC data for a total of 50 novel macrolides that this platform has produced against over 21 unique strains of B. subtilis, E. coli, S. aureus, S. pneumoniae, and H. influenzae, including several multidrug-resistant strains, with a special focus on macrolide resistant mechanisms (vide supra). Azithromycin was included as a control macrolide. CLSI standard procedures for broth dilution MIC determination were used. […] These genotypes can be constitutive or inducible. The finding that C4-epi (unnatural) isomers of the “azaketolide” macrolide class have enhanced activities relative to C4 natural isomers is very exciting.

[2] = tested on: H. influenzae strains; assay: MIC against H. influenzae strains (Table M8); conditions: Haemophilus influenzae
Excerpt: as §1

[3] = tested on: A. baumannii strains; assay: MIC against A. baumannii strains (Table M8); conditions: Acinetobacter baumannii, BAA747, A. baumannii BAA747-1
[4] = tested on: K. pneumoniae strains; assay: MIC against K. pneumoniae strains (Table M8); conditions: Klebsiella pneumoniae, K. pneumoniae 10031
[5] = tested on: S. aureus strains; assay: MIC against S. aureus strains (Table M7); conditions: Staphylococcus aureus
Excerpt: as §1

[6] = tested on: E. faecalis strains; assay: MIC against E. faecalis strains (Table M8); conditions: Enterococcus faecalis, E. faecalis 29212
[7] = tested on: S. pneumoniae strains; assay: MIC against S. pneumoniae strains (Tables M7, M8); conditions: for MIC: Streptococcus pneumoniae
Excerpt: CLSI standard procedures for broth dilution MIC determination were used. […] These genotypes can be constitutive or inducible.

[8] = H. influenzae 49247, read-out: MIC H. influenzae (49247)
[9] = H. influenzae 49766, read-out: MIC H. influenzae (49766)
[10] = ATCC29213, S. aureus ATCC 29213, read-out: MIC S. aureus (ATCC 29213)
[11] = S. aureus 183, read-out: MIC S. aureus (183)
[12] = S. aureus 506, read-out: MIC S. aureus (506)
[13] = S. aureus 1708, read-out: MIC S. aureus (1708)
[14] = USA300, S. aureus USA300, read-out: MIC S. aureus (USA300)
[15] = S. pneumoniae 160, read-out: MIC S. pneumonae (160)
[16] = S. pneumoniae 1509, read-out: MIC S. pneumoniae (1509)
[17] = S. pneumoniae 1533, read-out: MIC S. pneumoniae (1533)
[18] = S. pneumoniae 1537, read-out: MIC S. pneumoniae (1537)
[19] = S. pneumoniae 49619, read-out: MIC S. pneumoniae (49619)

Row | Compound | MIC [1] [µg/mL] | MIC [2, 8] [µg/mL] | MIC [2, 9] [µg/mL] | MIC [3] [µg/mL] | MIC [4] [µg/mL] | MIC [5, 10] [µg/mL] | MIC [5, 11] [µg/mL] | MIC [5, 12] [µg/mL] | MIC [5, 13] [µg/mL] | MIC [5, 14] [µg/mL] | MIC [6] [µg/mL] | MIC [7, 15] [µg/mL] | MIC [7, 16] [µg/mL] | MIC [7, 17] [µg/mL] | MIC [7, 18] [µg/mL] | MIC [7, 19] [µg/mL] | MIC S. pneumoniae (49619) ([7]; S. pneumoniae 49619) [µg/mL]
1 | CC[C@H]1OC(=O)C(C)C(=O)[C@H](C)[C@@H](O[C@@H]2OC(C)CC(N(C)C)C2O)[C@](C)(OC/C=C/c2cnc3ccccc3c2)C[C@@H](C)CN(C)[C@H](C)[C@H]2NC(=O)O[C@@]21C (stereo partly shown) [FSM-21118] | 8 (≈ 10.2 µM) | 2 (≈ 2.56 µM) | 8 (≈ 10.2 µM) | 32 (≈ 41 µM) | 2 (≈ 2.56 µM) | 1 (≈ 1.28 µM) | > 32 | > 32 | 1 (≈ 1.28 µM) | 2 (≈ 2.56 µM) | 0.5 (≈ 0.64 µM) | ≤ 0.0625 | 1 (≈ 1.28 µM) | > 32 | 32 (≈ 41 µM) | 0.125 (≈ 0.16 µM) | –
2 | CC[C@H]1OC(=O)[C@H](C)C(=O)[C@H](C)[C@@H](O[C@@H]2OC(C)CC(N(C)C)C2O)[C@](C)(OC)CC(C)(F)CN[C@H](C)[C@H]2N(CCCCn3cc(-c4cccc(N)c4)nn3)C(=O)O[C@]12C (stereo partly shown) [FSM-30686] | 32 (≈ 37.8 µM) | 2 (≈ 2.36 µM) | 8 (≈ 9.46 µM) | > 32 | 8 (≈ 9.46 µM) | 8 (≈ 9.46 µM) | > 32 | > 32 | 4 (≈ 4.73 µM) | 8 (≈ 9.46 µM) | 0.5 (≈ 0.591 µM) | 0.5 (≈ 0.591 µM) | 4 (≈ 4.73 µM) | > 32 | > 32 | 0.25 (≈ 0.295 µM) | –
3 | CC[C@H]1OC(=O)[C@H](C)C(=O)[C@H](C)[C@@H](O[C@@H]2OC(C)CC(N(C)C)C2O)[C@](C)(OC)CC(C)N[C@H](C)[C@H]2N(CCCCn3cc(-c4cccc(N)c4)nn3)C(=O)O[C@]12C (single isomer, unassigned) [FSM-30689] | > 32 | 16 (≈ 19.7 µM) | > 32 | > 32 | > 32 | > 32 | > 32 | > 32 | > 32 | > 32 | 32 (≈ 39.3 µM) | 16 (≈ 19.7 µM) | 16 (≈ 19.7 µM) | > 32 | > 32 | – | 8 (≈ 9.83 µM)
4 | CC[C@H]1OC(=O)[C@H](C)C(O)[C@H](C)[C@@H](O[C@@H]2OC(C)CC(N(C)C)C2O)[C@](C)(OC)C[C@@H](C)CN[C@H](C)[C@H]2N(CCCCn3cc(-c4cccc(N)c4)nn3)C(=O)O[C@]12C (stereo partly shown) [FSM-21340] | 4 (≈ 4.82 µM) | 1 (≈ 1.2 µM) | 4 (≈ 4.82 µM) | 8 (≈ 9.64 µM) | 2 (≈ 2.41 µM) | 16 (≈ 19.3 µM) | > 32 | > 32 | > 32 | 16 (≈ 19.3 µM) | 8 (≈ 9.64 µM) | 0.5 (≈ 0.602 µM) | > 32 | > 32 | > 32 | 0.5 (≈ 0.602 µM) | –

Second part, the molecule after the results:

Row | MIC [1] [µg/mL] | MIC [2, 8] [µg/mL] | MIC [2, 9] [µg/mL] | MIC [3] [µg/mL] | MIC [4] [µg/mL] | MIC [5, 10] [µg/mL] | MIC [5, 11] [µg/mL] | MIC [5, 12] [µg/mL] | MIC [5, 13] [µg/mL] | MIC [5, 14] [µg/mL] | MIC [6] [µg/mL] | MIC [7, 15] [µg/mL] | MIC [7, 16] [µg/mL] | MIC [7, 17] [µg/mL] | MIC [7, 18] [µg/mL] | MIC [7, 19] [µg/mL] | MIC S. pneumoniae (49619) ([7]; S. pneumoniae 49619) [µg/mL] | Compound
5 | 1 (≈ 2.19 µM) | 4 (≈ 8.74 µM) | 8 (≈ 17.5 µM) | 0.5 (≈ 1.09 µM) | 0.5 (≈ 1.09 µM) | 0.25 (≈ 0.546 µM) | 16 (≈ 35 µM) | 2 (≈ 4.37 µM) | 0.5 (≈ 1.09 µM) | 0.25 (≈ 0.546 µM) | 8 (≈ 17.5 µM) | 8 (≈ 17.5 µM) | 16 (≈ 35 µM) | 8 (≈ 17.5 µM) | 8 (≈ 17.5 µM) | 0.25 (≈ 0.546 µM) | – | CN(C)c1ccc(O)c2c1C[C@H]1C[C@H]3[C@H](N(C)C)C(O)=C(C(N)=O)C(=O)[C@@]3(O)C(O)=C1C2=O [Minocycline, minocycline, reference compound]
6 | 16 (≈ 19 µM) | 2 (≈ 2.38 µM) | 8 (≈ 9.5 µM) | 32 (≈ 38 µM) | 4 (≈ 4.75 µM) | 2 (≈ 2.38 µM) | > 32 | > 32 | 4 (≈ 4.75 µM) | 2 (≈ 2.38 µM) | 0.5 (≈ 0.594 µM) | 0.125 (≈ 0.148 µM) | 1 (≈ 1.19 µM) | > 32 | > 32 | ≤ 0.0625 | – | CC[C@H]1OC(=O)[C@H](C)C(=O)[C@H](C)[C@@H](O[C@@H]2OC(C)CC(N(C)C)C2O)[C@](C)(OC)C[C@@H](C)CN(C)[C@H](C)[C@H]2N(CCCCn3cc(-c4cccc(N)c4)nn3)C(=O)O[C@]12C (stereo partly shown) [FSM-21339]
7 | 16 (≈ 19.7 µM) | 2 (≈ 2.46 µM) | 4 (≈ 4.91 µM) | 16 (≈ 19.7 µM) | 4 (≈ 4.91 µM) | 2 (≈ 2.46 µM) | > 32 | > 32 | 1 (≈ 1.23 µM) | 4 (≈ 4.91 µM) | 0.25 (≈ 0.307 µM) | 0.25 (≈ 0.307 µM) | 1 (≈ 1.23 µM) | > 32 | > 32 | 0.25 (≈ 0.307 µM) | – | CC[C@H]1OC(=O)[C@H](C)C(=O)[C@H](C)[C@@H](O[C@@H]2OC(C)CC(N(C)C)C2O)[C@](C)(OC)C[C@@H](C)CNC[C@H]2N(CCCCn3cc(-c4cccc(N)c4)nn3)C(=O)O[C@]12C (stereo partly shown) [FSM-11031]
